Assay results published in patent US9320760B2, “Compositions and methods of use of compounds to increase cancer patient survival time” (BioNumerik Pharmaceuticals, Inc., priority 2008, dated 2016).
Read-outs that look alike come from different tables or passages of the source.

Key:
[1] = test system: mammalian thioredoxin reductase (TXR); conditions: cited from earlier work
Thioredoxin Reductase = target: T1, Thioredoxin Reductase (Bos taurus, UniProt O62768); test: NADPH oxidation at 340 nm, thioredoxin reductase only; format: biochemical, bovine; conditions: Disulfide 0.5 mM; minimum of triplicate assays
T1 sequence (O62768 1-499): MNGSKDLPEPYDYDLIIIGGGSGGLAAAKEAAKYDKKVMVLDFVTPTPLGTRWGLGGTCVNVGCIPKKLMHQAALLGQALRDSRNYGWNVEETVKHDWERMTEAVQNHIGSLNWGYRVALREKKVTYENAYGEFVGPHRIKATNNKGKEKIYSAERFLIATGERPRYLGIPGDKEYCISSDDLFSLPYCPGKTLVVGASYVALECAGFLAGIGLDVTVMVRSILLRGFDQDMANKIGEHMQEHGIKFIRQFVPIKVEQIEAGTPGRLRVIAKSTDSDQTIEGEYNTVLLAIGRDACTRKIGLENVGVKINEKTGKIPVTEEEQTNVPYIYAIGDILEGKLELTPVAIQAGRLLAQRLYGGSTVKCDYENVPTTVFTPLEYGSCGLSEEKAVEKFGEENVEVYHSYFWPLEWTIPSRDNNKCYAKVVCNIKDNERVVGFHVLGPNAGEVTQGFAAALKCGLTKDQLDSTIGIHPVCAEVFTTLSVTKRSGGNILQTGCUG
Description: (§1) Biochemistry 21:6628-6633 (1982).
(§2) Data was then collected and plotted in Microsoft Excel. Error calculations, and graphical representations were performed in Microsoft Excel and Kaleidograph (ver. 3.5). Nonlinear data was graphically rendered using Kaleidograph. ANOVA and other statistical analyses were performed using SAS (ver. 8.2). Unless otherwise noted, significance level was set at 0.05, and error bars represent actual experimental standard deviation.
(§3) It should be noted that for the purposes of FIG. 17 only, thioredoxin is labeled TXR and thioredoxin reductase is labeled TRR.

[2] = target: T2, Thioredoxin Reductase + Thioredoxin (Bos taurus, UniProt O97680); test: NADPH oxidation at 340 nm, coupled thioredoxin (TX)/thioredoxin reductase (TXR)/NADPH system; format: biochemical, bovine; conditions: Disulfide 0.5 mM; minimum of triplicate assays
T2 sequence (O97680 1-105): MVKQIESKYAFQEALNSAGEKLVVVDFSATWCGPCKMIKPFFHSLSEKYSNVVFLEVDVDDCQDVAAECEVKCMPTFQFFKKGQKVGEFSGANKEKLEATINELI
Description: as §1, §2, §3
Table 4, below, illustrates that various Formula (I) compounds (i.e., disulfide-containing compounds) of the present invention can serve as alternate substrate inhibitors for the coupled thioredoxin (TX)/thioredoxin reductase (TXR)/NADPH system as measured by the oxidation of NADPH. In Table 4, the Formula (I) compounds were utilized at a concentration of 0.5 mM.

[3] = target: T3, glutathione reductase (GR) (Homo sapiens, UniProt P00390); test: NADPH oxidation, glutathione reductase (GR) alone; format: biochemical; conditions: for NADPH Oxidation, GR: Disulfide 0.5 mM, n = 6
T3 sequence (P00390 44-522): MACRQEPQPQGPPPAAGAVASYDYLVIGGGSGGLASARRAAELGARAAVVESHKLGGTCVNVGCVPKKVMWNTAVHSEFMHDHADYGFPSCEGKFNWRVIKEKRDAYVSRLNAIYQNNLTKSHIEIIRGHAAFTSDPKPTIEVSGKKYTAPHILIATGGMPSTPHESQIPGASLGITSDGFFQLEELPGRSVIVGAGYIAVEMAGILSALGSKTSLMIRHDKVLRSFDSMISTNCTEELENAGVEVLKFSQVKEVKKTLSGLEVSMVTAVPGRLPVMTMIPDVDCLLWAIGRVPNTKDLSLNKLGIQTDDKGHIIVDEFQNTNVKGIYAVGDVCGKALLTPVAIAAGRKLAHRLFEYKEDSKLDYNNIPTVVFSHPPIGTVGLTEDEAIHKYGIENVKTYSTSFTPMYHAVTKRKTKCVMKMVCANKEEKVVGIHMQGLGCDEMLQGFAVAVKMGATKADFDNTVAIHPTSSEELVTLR
Description: (§4) The Formula (I) compound was utilized at a concentration of 0.5 mM.

GR + GSH = target: T4, GR + GSH (Homo sapiens, UniProt P00390); test: NADPH oxidation, GR + GSH; format: biochemical; conditions: Disulfide 0.5 mM; n = 6
T4 sequence (P00390 44-522): T3 sequence (P00390 44-522)
Description: as §4

[4] = target: T5, GR + GRX + GSH (coupled glutaredoxin/glutathione/glutathione reductase system) (Homo sapiens, UniProt P35754); test: NADPH oxidation, coupled GRX/GSH/GR system; format: biochemical; conditions: Disulfide 0.5 mM; n = 6
T5 sequence (P35754 1-106): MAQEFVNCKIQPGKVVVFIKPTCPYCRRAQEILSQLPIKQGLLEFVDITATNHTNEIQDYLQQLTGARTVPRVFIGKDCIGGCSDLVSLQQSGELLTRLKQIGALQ
Description: as §4

[5] = test system: cellular ribonucleotide reductase in human cancer cells; conditions: literature; cited from earlier work
[6] = target: T3, glutathione reductase (GR); conditions: cited from earlier work
whole cells = test: whole cell mediated disulfide reduction (α-lipoic acid, hydroxyethyldisulfide); format: cell-based; conditions: mesna in combination with cisplatin
[7] = test system: non-small cell lung carcinoma (NSCLC) cell lines; test: cytotoxicity study in combination with chemotherapeutic agents, NSCLC cell lines; format: cell-based, human
[8] = test system: ovarian cancer cell lines; test: cytotoxicity study in combination with oxaliplatin, ovarian cancer cell lines; format: cell-based, human; conditions: mesna 100 μM in combination with oxaliplatin vs oxaliplatin alone controls
brain cancer cells = test: cytotoxicity study in combination with oxaliplatin, brain cancer cells; format: cell-based, human; conditions: oxaliplatin and mesna, observable but not statistically significant
[9] = literature studies, result in words

In the case of CC1=C(/C=C/C(C)=C/C=C/C(C)=C\C(=O)O)C(C)(C)CCC1 [13-cis-retinoic acid], the “inhibition of TXR” value [1, 9] is listed as “irreversible inhibition”.
In the case of NC(CSSCCS(=O)(=O)O)C(=O)O (stereo not shown) [BNP7766], the “NADPH Oxidation, Thioredoxin Reductase only” value (Thioredoxin Reductase) is reported as 0.2 ± 0.03 nmol/min/mL, the “NADPH Oxidation, Thioredoxin Reductase + Thioredoxin” value [2] is reported as 14.4 ± 0.2 nmol/min/mL and the “NADPH Oxidation, GR” value [3] is reported as 0.0 ± 0.01 nmol/min/mL. The “NADPH Oxidation, GR + GSH” value (GR + GSH) was 4.1 ± 1.3 nmol/min/mL and the “NADPH Oxidation, GR + GRX + GSH” value [4] was 28.3 ± 2.0 nmol/min/mL.
With NC(CCSSCCS(=O)(=O)O)C(=O)O (stereo not shown) [BNP7768] the “NADPH Oxidation, Thioredoxin Reductase only” value (Thioredoxin Reductase) was 0.0 ± 0.03 nmol/min/mL, the “NADPH Oxidation, Thioredoxin Reductase + Thioredoxin” value [2] was 8.6 ± 0.06 nmol/min/mL and the “NADPH Oxidation, GR” value [3] was 0.16 ± 0.96 nmol/min/mL. For the same compound, the “NADPH Oxidation, GR + GSH” value (GR + GSH) was 0.88 ± 0.2 nmol/min/mL and the “NADPH Oxidation, GR + GRX + GSH” value [4] was 10.7 ± 0.7 nmol/min/mL.
In the case of N[C@@H](CCC(=O)N[C@@H](CSSCCS(=O)(=O)O)C(=O)NCC(=O)O)C(=O)O [BNP7772], the “NADPH Oxidation, Thioredoxin Reductase only” value (Thioredoxin Reductase) is reported as 0.3 ± 0.02 nmol/min/mL, the “NADPH Oxidation, Thioredoxin Reductase + Thioredoxin” value [2] is reported as 14.1 ± 0.1 nmol/min/mL and the “NADPH Oxidation, GR” value [3] is reported as 8.0 ± 0.6 nmol/min/mL. For the same compound, the “substrate / alternative substrate inhibitor for glutathione reductase” value ([3]; result in words) was “functions as an alternative substrate inhibitor”, the “NADPH Oxidation, GR + GSH” value (GR + GSH) was 11.3 ± 0.8 nmol/min/mL and the “NADPH Oxidation, GR + GRX + GSH” value [4] was 71.0 ± 7.9 nmol/min/mL.
In the case of NC(CCC(=O)NC(CSSCCS(=O)(=O)O)C(=O)O)C(=O)O (stereo not shown) [BNP7774], the “NADPH Oxidation, Thioredoxin Reductase only” value (Thioredoxin Reductase) is reported as 0.3 ± 0.02 nmol/min/mL, the “NADPH Oxidation, Thioredoxin Reductase + Thioredoxin” value [2] is reported as 9.6 ± 0.2 nmol/min/mL and the “NADPH Oxidation, GR” value [3] is reported as 0.04 ± 0.12 nmol/min/mL. The “NADPH Oxidation, GR + GSH” value (GR + GSH) was 2.4 ± 0.7 nmol/min/mL and the “NADPH Oxidation, GR + GRX + GSH” value [4] was 37.0 ± 2.1 nmol/min/mL.
For N[C@@H](CSSCCS(=O)(=O)O)C(=O)NCC(=O)O [BNP7776], the “NADPH Oxidation, Thioredoxin Reductase only” value (Thioredoxin Reductase) was 0.2 ± .04 nmol/min/mL, the “NADPH Oxidation, Thioredoxin Reductase + Thioredoxin” value [2] was 15.8 ± 0.3 nmol/min/mL and the “NADPH Oxidation, GR” value [3] was 0.0 ± 0.7 nmol/min/mL. For the same compound, the “NADPH Oxidation, GR + GSH” value (GR + GSH) was 4.1 ± 1.0 nmol/min/mL and the “NADPH Oxidation, GR + GRX + GSH” value [4] was 22.0 ± 0.5 nmol/min/mL.
In the case of CCOC(=O)NC1=C(N2CC2)C(=O)C(NC(=O)OCC)=C(N2CC2)C1=O [Diaziquone], the “inhibition of the TR/TXR system resulting in inhibition of cellular ribonucleotide reductase activity” value [5] is listed as “concentration-dependent inhibition”.
For CS(=O)(=O)OCCCCOS(C)(=O)=O [busulfan], the “inhibition of TXR” value [1, 9] is listed as “irreversibly inhibited” and the “inhibition of GR” value [6, 9] is listed as “not GR”.
For N.N.O=C([O-])C1(C(=O)[O-])CCC1.[Pt+2] [carboplatin], the “inhibition of TXR” value [1, 9] is listed as “could not inhibit” and the “inhibition of GR” value [6, 9] is listed as “could not inhibit”.
In the case of O=NN(CCCl)C(=O)NCCCl [carmustine], the “inhibition of TXR” value [1, 9] is given as “can inhibit” and the “inhibition of GR” value [6, 9] is given as “can inhibit”.
In the case of O=C(O)CCCc1ccc(N(CCCl)CCCl)cc1 [chlorambucil], the “inhibition of TXR” value [1, 9] is listed as “irreversibly inhibited” and the “inhibition of GR” value [6, 9] is listed as “not GR”.
For N.N.[Cl][Pt][Cl] [cisplatin, cis-diamminedichloroplatinum], the “inhibition of TXR” value [1, 9] is given as “irreversibly inhibited” and the “inhibition of GR” value [6, 9] is given as “not GR”.
In the case of O=P1(N(CCCl)CCCl)NCCCO1 (stereo not shown) [cyclophosphamide], the “inhibition of TXR” value [1, 9] is listed as “irreversibly inhibited” and the “inhibition of GR” value [6, 9] is listed as “not GR”.
In the case of COc1cccc2c1C(=O)c1c(O)c3c(c(O)c1C2=O)C[C@@](O)(C(C)=O)C[C@@H]3O[C@H]1C[C@H](N)[C@H](O)[C@H](C)O1 [daunorubicin], the “inhibition of TXR” value [1] is listed as “not inhibitors”.
In the case of COc1cccc2c1C(=O)c1c(O)c3c(c(O)c1C2=O)C[C@@](O)(C(=O)CO)C[C@@H]3O[C@H]1C[C@H](N)[C@H](O)[C@H](C)O1 [doxorubicin], the “inhibition of TXR” value [1, 9] is listed as “not inhibitors” and the “inhibition of the TR/TXR system resulting in inhibition of cellular ribonucleotide reductase activity” value [5] is listed as “concentration-dependent inhibition”.
For O=P1(NCCCl)OCCCN1CCCl (stereo not shown) [ifosfamide], the “inhibition of TXR” value [1, 9] is given as “inhibited”.
In the case of N[C@@H](Cc1ccc(N(CCCl)CCCl)cc1)C(=O)O [melphalan], the “inhibition of TXR” value [1, 9] is given as “irreversibly inhibited” and the “inhibition of GR” value [6, 9] is given as “not GR”.
For O=S(=O)([O-])CCS.[Na+] [mesna, 2-mercapto ethane sulfonate sodium], the “reduction of α-lipoic acid (TX/TXR substrate) or hydroxyethyldisulfide (GRX substrate) by whole cells” value (whole cells) was “enhanced”, the “cytotoxic effect of oxaliplatin” value ([7]; mesna 100 μM in combination with oxaliplatin vs oxaliplatin alone controls) was “markedly enhanced” and the “cytotoxic effect of paclitaxel” value ([7]; mesna 100 μM in combination with paclitaxel vs paclitaxel alone controls) was “enhanced”. For the same compound, the “cytotoxic effect of oxaliplatin” value [8] was “markedly enhanced” and the oxaliplatin cytotoxicity (brain cancer cells) was “lesser increase”.
In the case of O=C(O)C(=O)O.[NH-][C@@H]1CCCC[C@H]1[NH-].[Pt+2] [oxaliplatin], the “inhibition of TXR” value [1] is given as “irreversibly inhibited” and the “inhibition of GR” value [6] is given as “not GR”.
For N.N.[Cl][Pt+2][Cl] [transplatin], the “inhibition of TXR” value [1] is listed as “irreversibly inhibited” and the “inhibition of GR” value [6] is listed as “not GR”.
